Measurements from patent publication US9345245B2, “Synthetic compounds for vegetative ABA responses” (THE REGENTS OF THE UNIVERSITY OF CALIFORNIA, priority 2012, dated 2016).

Assays:
PYL5 = target: T1, PYL5 (Arabidopsis thaliana, UniProt Q9FLB1); test: Receptor-mediated PP2C inhibition assay, receptor PYL5; assay type: biochemical
T1 construct: 6xHis (N); made in house; BL21[DE3]pLysS for the GST-PP2Cs
T1 sequence (Q9FLB1 1-203): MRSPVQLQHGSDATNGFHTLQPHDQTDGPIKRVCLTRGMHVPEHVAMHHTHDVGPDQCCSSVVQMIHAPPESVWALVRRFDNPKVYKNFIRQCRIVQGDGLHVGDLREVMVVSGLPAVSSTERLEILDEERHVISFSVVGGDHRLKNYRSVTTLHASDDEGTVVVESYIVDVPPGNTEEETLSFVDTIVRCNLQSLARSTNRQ
T1 sequence (Q9CAJ0 23-511 partner): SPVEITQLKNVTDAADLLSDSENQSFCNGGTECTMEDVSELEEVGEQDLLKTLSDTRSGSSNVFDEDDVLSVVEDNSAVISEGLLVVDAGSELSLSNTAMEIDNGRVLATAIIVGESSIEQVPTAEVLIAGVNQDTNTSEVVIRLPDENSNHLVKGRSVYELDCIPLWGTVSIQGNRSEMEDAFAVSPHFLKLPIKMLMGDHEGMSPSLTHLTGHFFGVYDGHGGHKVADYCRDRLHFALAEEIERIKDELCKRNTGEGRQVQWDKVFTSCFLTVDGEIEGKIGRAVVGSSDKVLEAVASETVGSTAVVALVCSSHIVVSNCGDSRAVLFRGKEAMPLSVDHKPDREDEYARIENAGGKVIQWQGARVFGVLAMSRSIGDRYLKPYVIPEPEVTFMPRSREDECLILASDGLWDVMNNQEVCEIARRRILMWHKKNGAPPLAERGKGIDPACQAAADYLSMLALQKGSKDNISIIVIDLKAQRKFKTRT
Procedure: HAB1 and PYL proteins were expressed and purified as described previously (Park S Y, et al. (2009) Abscisic Acid Inhibits Type 2C Protein Phosphatases via the PYR/PYL Family of START Proteins. Science 324(5930):1068-1071), with minor modifications. To obtain GST-HAB1, -ABI1 and -ABI2 fusion proteins, the HAB1 cDNA was cloned into pGex-2T whereas ABI1 and ABI2 cDNAs were cloned into the vector pGex-4T-1. Expression was conducted in BL21[DE3]pLysS host cells. Transformed cells were pre-cultured overnight, transferred to LB medium and cultured at 30° C. to culture A600 of ˜0.5. The culture was then cooled on ice and MnCl2 added to 4 mM and IPTG added to 0.3 mM. After 16 hours incubation at 15° C., cells were harvested and recombinant proteins were purified on glutathione agarose as described previously (Park S Y, et al. (2009). To obtain 6×His-PYL receptor fusion proteins, receptor cDNAs for all 13 ABA receptors were cloned into the vector pET28 and expressed and purified as described previously (Mosquna A, et al. (2011) Potent and selective activation of abscisic acid receptors in vivo by mutational stabilization of their agonist-bound conformation. PNAS 108(51):20838-20843); this yielded soluble and functional protein (assessed using receptor-mediated PP2C inhibition assays) for all receptors except PYL7, PYL11 and PYL12. […]

[1] = system: Physcomitrella patens protonema; test: Protonema growth of moss; assay type: in vivo; details: 200 μM, 10 days
Procedure: FIG. 17. The effect of ABA and its agonists in Physcomitrella patens and Chlamydomonas. Protonemal growth images (A) and quantitative analysis (B) of the effects of ABA and agonists on Phsycomitrella patens. Protonema were grown on 200 μM of specific test chemical for 10 days. […] Pyrabactin bleached protonema. (C) The expression of ABA-responsive genes of Physcomitrella patens. Protonema were treated with 200 μM chemical solutions for 3 h. (D) Colony growth of Chlamydomonas on the chemical with salinity stress and osmotic stress. There was no effect of ABA and LC66C6 on the Chlamydomonas growth with and without stresses.

Arabidopsis seeds = details: pyr1 single mutant; Park et al. 2009; cited from earlier work

PP2C inhibition at saturation (PYL5; maximal (saturating) inhibition): ~40%
IC50 (PYL5; read-out: IC50 (activation of PYL5)): 900 nM
SMILES: O=S(=O)(NCc1ccccn1)c1ccc(Br)c2ccccc12 [pyrabactin]
bleaching of protonema (toxicity) [1]: bleached the protonema
germination of pyr1 mutant (Arabidopsis seeds): pyr1 mutant germinates
